From ChEMBL document CHEMBL5154820 (Eur J Med Chem, 2022)

Legend:
[1] = test system: HeLa; assay: Antitumor activity against human HeLa cells xenografted in BABL/ mouse assessed as tumor growth inhibition at 60 mg/kg, ip administered daily for 21 days relative to control; format: functional; conditions: 504 h, time 21 day, read-out: TGI
[2] = test system: HeLa; assay: Induction of cell cycle arrest in human HeLa cells assessed as accumulation of cells at G2/M phase at 0.1 uM after 24 hrs by propidium iodide staining based flow cytometric analysis (reference value: 20.3%); format: functional
[3] = Toxicity against BABL/c mouse assessed as morphological changes in liver at 30 mg/kg, ip administered daily for 21 days followed by addition of 3 mg/kg DDP for every 2 days by H and E staining method; format: organism-based; conditions: in vivo, 504 h, time 21 day
[4] = test system: HeLa; assay: Antimigratory activity against human HeLa cells at 0.1 uM measured after 24 hrs by scratch wound healing based fluorescence inverted microscopic analysis; format: functional
[5] = Toxicity against BABL/c mouse assessed as morphological changes in lung at 30 mg/kg, ip administered daily for 21 days followed by addition of 3 mg/kg DDP for every 2 days by H and E staining method; format: organism-based; conditions: in vivo, 504 h, time 21 day
[6] = test system: HeLa; assay: Induction of cell cycle arrest in human HeLa cells assessed as 4N cells at 0.1 uM measured after 24 hrs by propidium iodide staining based flow cytometric analysis analysis ( Rvb = 20.3%); format: functional
[7] = Acute toxicity against ICR mouse assessed as focal necrosis in liver at 1000 mg/kg, ip measured after 14 days by H and E staining method; format: organism-based; conditions: in vivo, 336 h, time 14 day
[8] = Toxicity against BABL/c mouse assessed as morphological changes in liver at 30 to 60 mg/kg, ip administered daily for 21 days by H and E staining method; format: organism-based; conditions: in vivo, 504 h, dose 30-60 mg/kg, time 21 day
[9] = test system: HeLa; assay: Induction of cell cycle arrest in human HeLa cells assessed as >4N cells at 0.1 uM measured after 24 hrs by propidium iodide staining based flow cytometric analysis analysis ( Rvb = 8.84%); format: functional
[10] = target: Tubulin beta (Homo sapiens) (UniProt P68371+Q9H4B7+Q13509+P04350+Q3ZCM7+P07437+Q13885+Q9BVA1+Q9BUF5+A6NNZ2); assay: Binding affinity to beta-tubulin colchicine binding site in human HeLa cells assessed as decrease of adduct formation by measuring gray value measured at 5 uM incubated for 2 hrs followed by addition of EBI measured after 1.5 hrs by EBI competition based Western blotting analysis; format: cell-based; conditions: time 3.5 hrs
[11] = Acute toxicity against ICR mouse assessed as morphological changes in lung at 1000 mg/kg, ip measured after 14 days by H and E staining method; format: organism-based; conditions: in vivo, 336 h, time 14 day
[12] = test system: HeLa; assay: Induction of cell cycle arrest in human HeLa cells assessed as 4N cells at 0.4 uM measured after 24 hrs by propidium iodide staining based flow cytometric analysis analysis ( Rvb = 20.3%); format: functional
[13] = test system: HeLa; assay: Induction of apoptosis in human HeLa cells assessed as necrotic cells at 0.1 uM measured after 24 hrs by Annexin V-FITC/7-AAD staining based flow cytometric analysis (reference value: 0.56%); format: functional
[14] = test system: HeLa; assay: Antimigratory activity against human HeLa cells at 0.2 uM measured after 24 hrs by scratch wound healing based fluorescence inverted microscopic analysis; format: functional
[15] = target: Tubulin (Homo sapiens) (UniProt P68371+Q9H4B7+P0DPH7+P68366+Q13509+Q71U36+P04350+Q3ZCM7+P07437+P68363+Q9BQE3+Q6PEY2+Q13885+Q9BVA1+Q9BUF5); assay: Induction of microtubule disruption in human HeLa cells assessed as loss of formation of cell membrane rounding at 0.1 to 0.2 uM measured after 24 hrs by DAPI staining based laser scanning confocal microscopic analysis; conditions: dose 0.1-0.2 µM, DDE = dose-dependent effect
[16] = test system: HeLa; assay: Induction of apoptosis in human HeLa cells assessed as early apoptotic cells at 3 nM measured after 24 hrs by Annexin V-FITC/7-AAD staining based flow cytometric analysis (reference value: 18.8%); format: functional
[17] = test system: HeLa; assay: Induction of cell cycle arrest in human HeLa cells assessed as >4N cells at 6 nM measured after 24 hrs by propidium iodide staining based flow cytometric analysis analysis relative to control; format: functional
[18] = test system: HeLa; assay: Induction of apoptosis in human HeLa cells assessed as necrotic cells at 3 nM measured after 24 hrs by Annexin V-FITC/7-AAD staining based flow cytometric analysis (reference value: 0.45%); format: functional

CCOc1ccc(-c2cncnc2-c2cc(OC)c(OC)c(OC)c2)cc1Cl
inhibition in vivo at 60 mg/kg [1]: 58% | Activity [2]: 24.7% | Activity [3]: Non-Toxic | Activity [4]: 3% | Activity [5]: Non-Toxic | Activity [6]: 24.7% | Activity [7]: Non-Toxic | Activity [8]: Non-Toxic | Activity [9]: 21.6% | Activity [10]: 0.59 | Activity [11]: Non-Toxic | Activity [12]: 71.7% | Activity [13]: 0.5% | Activity [14]: 40% | Activity [15]: Dde

COc1ccc(/C=C\c2cc(OC)c(OC)c(OC)c2)cc1O [COMBRETASTATIN A4]
Activity [16]: 43.8% | Activity [17]: 6.35% | Activity [18]: 0.64%
